Assay results reported in PubChem BioAssay AID1963984 (Molecular Pharmacology Branch, DTP, NCI, 2024).

Test system: 233499-124-R-J3-PDC spheroids with HUVEC/MSC, viability
Assay: Anticancer human tumor 233499-124-R-J3-PDC patient-derived colon adenocarcinoma cell line growth inhibition [PI3K]
Conditions: for IC50: curve of first compound; for viability, T/C: stronger effect = lower value; active means viability on the fitted dose curve at most 10% of control; inactive means the rest
Procedure, shortened: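 Viability of mixed-cell spheroids was determined after exposure to pairwise combinations, one partner being inavolisib, alpelisib, duvelisib or copanlisib. Highest tested concentration matched clinical Cmax where known and 10 microM where not, descending in half-log steps.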

[1] = second compound 0.0316 µM, first compound 0.0316 µM
[2] = second compound 0.0316 µM, first compound 0.1 µM
[3] = second compound 0.0316 µM, first compound 0.316 µM
[4] = second compound 0.0316 µM, first compound 1 µM
[5] = second compound 0.0316 µM, first compound 3.16 µM
[6] = second compound 0.0316 µM, first compound 10 µM
[7] = second compound 0.1 µM, first compound 0.0316 µM
[8] = second compound 0.1 µM, first compound 0.1 µM
[9] = second compound 0.1 µM, first compound 0.316 µM
[10] = second compound 0.1 µM, first compound 1 µM
[11] = second compound 0.1 µM, first compound 3.16 µM
[12] = second compound 0.1 µM, first compound 10 µM
[13] = second compound 0.316 µM, first compound 0.0316 µM
[14] = second compound 0.316 µM, first compound 0.1 µM
[15] = second compound 0.316 µM, first compound 0.316 µM
[16] = second compound 0.316 µM, first compound 1 µM
[17] = second compound 0.316 µM, first compound 3.16 µM
[18] = second compound 0.316 µM, first compound 10 µM
[19] = second compound 1 µM, first compound 0.0316 µM
[20] = second compound 1 µM, first compound 0.1 µM
[21] = second compound 1 µM, first compound 0.316 µM
[22] = second compound 1 µM, first compound 1 µM
[23] = second compound 1 µM, first compound 3.16 µM
[24] = second compound 1 µM, first compound 10 µM
[25] = second compound 3.16 µM, first compound 0.0316 µM
[26] = second compound 3.16 µM, first compound 0.1 µM
[27] = second compound 3.16 µM, first compound 0.316 µM
[28] = second compound 3.16 µM, first compound 1 µM
[29] = second compound 3.16 µM, first compound 3.16 µM
[30] = second compound 3.16 µM, first compound 10 µM
[31] = second compound 10 µM, first compound 0.0316 µM
[32] = second compound 10 µM, first compound 0.1 µM
[33] = second compound 10 µM, first compound 0.316 µM
[34] = second compound 10 µM, first compound 1 µM
[35] = second compound 10 µM, first compound 3.16 µM
[36] = second compound 10 µM, first compound 10 µM
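Further: spheroids exposed to agents for seven days before readout.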
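Wherever viability, T/C is given: percent viability relative to DMSO vehicle control taken as 100%.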

Cn1nccc1Nc1nccc(-c2ccn(C(CO)c3ccc(Cl)c(F)c3)c(=O)c2)n1 (stereo not drawn) + CC(Nc1ncnc2nc[nH]c12)c1cc2cccc(Cl)c2c(=O)n1-c1ccccc1
> 10 µM: IC50 (second compound 0.0316 µM) | IC50 (second compound 0.1 µM) | IC50 (second compound 0.316 µM) | IC50 (second compound 1 µM) | IC50 (second compound 3.16 µM) | IC50 (second compound 10 µM)
inactive: viability, T/C [1] 108% | viability, T/C [2] 104% | viability, T/C [3] 110% | viability, T/C [4] 88% | viability, T/C [5] 89% | viability, T/C [6] 70.8% | viability, T/C [7] 103% | viability, T/C [8] 95.6% | viability, T/C [9] 91.3% | viability, T/C [10] 65.1% | viability, T/C [11] 92.8% | viability, T/C [12] 62.3% | viability, T/C [13] 108% | viability, T/C [14] 89.9% | viability, T/C [15] 90.4% | viability, T/C [16] 70.8% | viability, T/C [17] 78.1% | viability, T/C [18] 68.6% | viability, T/C [19] 91.7% | viability, T/C [20] 72.6% | viability, T/C [21] 72.9% | viability, T/C [22] 86.3% | viability, T/C [23] 81.3% | viability, T/C [24] 69% | viability, T/C [25] 87% | viability, T/C [26] 87.9% | viability, T/C [27] 74.5% | viability, T/C [28] 89.8% | viability, T/C [29] 66.3% | viability, T/C [30] 77.6% | viability, T/C [31] 76.8% | viability, T/C [32] 83.8% | viability, T/C [33] 98% | viability, T/C [34] 69.9% | viability, T/C [35] 76.4% | viability, T/C [36] 51.9%

C[C@@H](NC(=O)c1ncnc(N)c1Cl)c1ncc(C(=O)Nc2cc(C(F)(F)F)c(Cl)cn2)s1 + CC(Nc1ccc2c(c1)OCCn1cc(N3C(=O)OCC3C(F)F)nc1-2)C(N)=O
> 10 µM: IC50 (second compound 0.00316 µM) | IC50 (second compound 0.01 µM) | IC50 (second compound 0.0316 µM) | IC50 (second compound 0.1 µM) | IC50 (second compound 0.316 µM) | IC50 (second compound 1 µM)
inactive: viability, T/C (second compound 0.00316 µM, first compound 0.0316 µM) 102% | viability, T/C (second compound 0.00316 µM, first compound 0.1 µM) 112% | viability, T/C (second compound 0.00316 µM, first compound 0.316 µM) 113% | viability, T/C (second compound 0.00316 µM, first compound 1 µM) 105% | viability, T/C (second compound 0.00316 µM, first compound 3.16 µM) 126% | viability, T/C (second compound 0.00316 µM, first compound 10 µM) 90.5% | viability, T/C (second compound 0.01 µM, first compound 0.0316 µM) 113% | viability, T/C (second compound 0.01 µM, first compound 0.1 µM) 119% | viability, T/C (second compound 0.01 µM, first compound 0.316 µM) 130% | viability, T/C (second compound 0.01 µM, first compound 1 µM) 105% | viability, T/C (second compound 0.01 µM, first compound 3.16 µM) 111% | viability, T/C (second compound 0.01 µM, first compound 10 µM) 102% | viability, T/C [1] 99.4% | viability, T/C [2] 119% | viability, T/C [3] 109% | viability, T/C [4] 98.6% | viability, T/C [5] 113% | viability, T/C [6] 74.5% | viability, T/C [7] 87.2% | viability, T/C [8] 84.6% | viability, T/C [9] 108% | viability, T/C [10] 106% | viability, T/C [11] 102% | viability, T/C [12] 92% | viability, T/C [13] 82.8% | viability, T/C [14] 81.2% | viability, T/C [15] 85.6% | viability, T/C [16] 95.2% | viability, T/C [17] 102% | viability, T/C [18] 65.8% | viability, T/C [19] 53.5% | viability, T/C [20] 68.5% | viability, T/C [21] 52.5% | viability, T/C [22] 83% | viability, T/C [23] 77.2% | viability, T/C [24] 56.6%

Cc1nc(NC(=O)N2CCCC2C(N)=O)sc1-c1ccnc(C(C)(C)C(F)(F)F)c1 (stereo not drawn)
inactive: viability, T/C (compound 0.0316 µM) 79.1% [middle of 7 runs] | viability, T/C (compound 0.1 µM) 88.6% [middle of 8 runs]

CC(Cn1ccc(-c2ccc(C#N)c(Cl)c2)n1)NC(=O)c1cc(C(C)O)[nH]n1 (stereo not drawn) + CC(Nc1ncnc2nc[nH]c12)c1cc2cccc(Cl)c2c(=O)n1-c1ccccc1
> 10 µM: IC50 (second compound 0.0316 µM) | IC50 (second compound 0.1 µM) | IC50 (second compound 0.316 µM) | IC50 (second compound 1 µM) | IC50 (second compound 3.16 µM) | IC50 (second compound 10 µM)
inactive: viability, T/C [1] 100% | viability, T/C [2] 84.7% | viability, T/C [3] 93.2% | viability, T/C [4] 91.9% | viability, T/C [5] 109% | viability, T/C [6] 75% | viability, T/C [7] 98.2% | viability, T/C [8] 91.6% | viability, T/C [9] 81.5% | viability, T/C [10] 94.6% | viability, T/C [11] 68.8% | viability, T/C [12] 92.2% | viability, T/C [13] 87.3% | viability, T/C [14] 101% | viability, T/C [15] 73.3% | viability, T/C [16] 99.6% | viability, T/C [17] 100% | viability, T/C [18] 101% | viability, T/C [19] 96.2% | viability, T/C [20] 95.8% | viability, T/C [21] 81.4% | viability, T/C [22] 110% | viability, T/C [23] 92.9% | viability, T/C [24] 90.6% | viability, T/C [25] 91.6% | viability, T/C [26] 96.5% | viability, T/C [27] 78.1% | viability, T/C [28] 88.7% | viability, T/C [29] 78.3% | viability, T/C [30] 86.5% | viability, T/C [31] 86.1% | viability, T/C [32] 96.3% | viability, T/C [33] 83.2% | viability, T/C [34] 102% | viability, T/C [35] 75.5% | viability, T/C [36] 93.3%
